Measured values as given in patent publication US12071404B2, “Aza (indole)-, benzothiophene-, and benzofuran-3-sulfonamides” (UCB Pharma GmbH, priority 2016, dated 2024).

Biological target: GPR17 (Homo sapiens, UniProt Q13304)
Experiment: Calcium mobilization functional assay (GPR17 Ca2+ assay)
Assay type: cell-based
Design: host or cells: Flp-In T-REx CHO
Settings: CHO hGPR17 cells, inhibition of 50 nM MDL29,951, Calcium 5 dye, FLIPR; read-out: Ca2+ assay pIC50 (converted)
How it was run: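 Flp-In T-REx CHO cells stably expressing human GPR17, doxycycline-induced (1 μg/mL, 16-20 h), loaded 60 min with Calcium 5 dye. Inhibition by varying test-compound concentrations of the 50 nM MDL29,951 agonist response was read by fluorescence over time at room temperature. pIC50 came from 4-parameter logistic fitting.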

Sequence of GPR17 (Q13304 whole entry): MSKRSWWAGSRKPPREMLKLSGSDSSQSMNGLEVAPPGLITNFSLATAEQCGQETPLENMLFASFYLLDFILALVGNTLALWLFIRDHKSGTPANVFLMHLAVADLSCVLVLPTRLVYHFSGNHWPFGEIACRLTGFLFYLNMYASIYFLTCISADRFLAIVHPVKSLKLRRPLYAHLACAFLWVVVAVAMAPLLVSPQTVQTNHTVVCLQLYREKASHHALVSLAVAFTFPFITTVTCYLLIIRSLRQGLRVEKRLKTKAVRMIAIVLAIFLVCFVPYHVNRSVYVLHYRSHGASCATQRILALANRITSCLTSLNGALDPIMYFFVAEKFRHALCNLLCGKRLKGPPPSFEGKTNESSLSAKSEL

| Structure (SMILES) | IC50 |
| --- | --- |
| Cc1cc(NS(=O)(=O)c2c[nH]c3cc(Cl)ccc23)c(F)cc1Cl [Compound I-214, 6-chloro-N-(4-chloro-2-fluoro-5-methylphenyl)-1H-indole-3-sulfonamide] | > 0.0316 µM |
| O=S(=O)(Nc1ccc2nsnc2c1)c1c[nH]c2c3c(ccc12)CCC3 [Compound I-158, N-(2,1,3-benzothiadiazol-5-yl)-1,6,7,8-tetrahydrocyclopenta[g]indole-3-sulfonamide] | > 0.0316 µM |
| O=S(=O)(Nc1cc(F)c(F)cc1F)c1c[nH]c2cc3c(cc12)OCO3 [Compound I-46, N-(2,4,5-trifluorophenyl)-5H-[1,3]dioxolo[4,5-f]indole-7-sulfonamide] | > 0.0316 µM |
| O=S1(=O)CCc2ccc(NS(=O)(=O)c3c[nH]c4cc(Cl)ccc34)cc21 [Compound I-10, 6-chloro-N-(1,1-dioxido-2,3-dihydro-1-benzothiophen-6-yl)-1H-indole-3-sulfonamide] | > 0.0316 µM |
| O=S(=O)(Nc1cccc(F)c1F)c1c[nH]c2cc(Cl)ccc12 [Compound I-205, 6-chloro-N-(2,3-difluorophenyl)-1H-indole-3-sulfonamide] | > 0.0316 µM |
| O=S(=O)(Nc1ccc(Cl)cc1F)c1c[nH]c2cc(F)ccc12 [Compound I-51, N-(4-chloro-2-fluorophenyl)-6-fluoro-1H-indole-3-sulfonamide] | > 0.0316 µM |
| CS(=O)(=O)c1ccc2c(S(=O)(=O)Nc3cc(F)ccc3F)c[nH]c2c1 [Compound I-28, N-(2,5-difluorophenyl)-6-(methylsulfonyl)-1H-indole-3-sulfonamide] | > 0.0316 µM |
| O=S(=O)(Nc1cccc2c1OC(F)(F)O2)c1c[nH]c2ncc(I)cc12 [Compound I-99, N-(2,2-difluoro-1,3-benzodioxol-4-yl)-5-iodo-1H-pyrrolo[2,3-b]pyridine-3-sulfonamide] | > 0.0316 µM |

Other lines, results leading:

| IC50 | Structure (SMILES) |
| --- | --- |
| > 0.0316 µM | O=S(=O)(Nc1ccc2c(c1)OCO2)c1c[nH]c2cc(Cl)ccc12 [Compound I-5, N-(1,3-benzodioxol-5-yl)-6-chloro-1H-indole-3-sulfonamide] |
| > 0.0316 µM | COc1ccc2c(S(=O)(=O)Nc3cc(F)c(F)cc3F)c[nH]c2c1 [Compound I-2, 6-methoxy-N-(2,4,5-trifluorophenyl)-1H-indole-3-sulfonamide] |
| > 0.0316 µM | O=S(=O)(Nc1ccc(I)cc1F)c1c[nH]c2ncc(I)cc12 [Compound I-101, N-(2-fluoro-4-iodophenyl)-5-iodo-1H-pyrrolo[2,3-b]pyridine-3-sulfonamide] |
| 0.00316 to 0.0316 µM | O=S(=O)(Nc1cc2nsnc2cc1F)c1c[nH]c2nc(Cl)ccc12 [Compound I-144, 6-chloro-N-(6-fluoro-2,1,3-benzothiadiazol-5-yl)-1H-pyrrolo[2,3-b]pyridine-3-sulfonamide] |
| > 0.0316 µM | COCc1ccc(NS(=O)(=O)c2c[nH]c3cc(Cl)ccc23)cc1 [Compound I-122, 6-chloro-N-(4-(methoxymethyl)phenyl)-1H-indole-3-sulfonamide] |
| > 0.0316 µM | N#Cc1ccc2c(S(=O)(=O)Nc3cc4c(cc3F)OC(F)(F)O4)c[nH]c2c1 [Compound I-68, 6-cyano-N-(2,2,6-trifluoro-1,3-benzodioxol-5-yl)-1H-indole-3-sulfonamide] |
